Patent publication US7968577B2 (Bristol-Myers Squibb Company, priority 2006, dated 2011)

Experiments:
[1] = target: T1, human glucocorticoid receptor (Homo sapiens, UniProt P04150); experiment: Glucocorticoid Receptor Binding Assay (I), fluorescence polarization competitor kit (Fluormone GS Red); details: GR Binding Assay (I)
T1 construct: purified human recombinant full-length glucocorticoid receptor; purchased Invitrogen Part #2893
T1 sequence (P04150 1-777): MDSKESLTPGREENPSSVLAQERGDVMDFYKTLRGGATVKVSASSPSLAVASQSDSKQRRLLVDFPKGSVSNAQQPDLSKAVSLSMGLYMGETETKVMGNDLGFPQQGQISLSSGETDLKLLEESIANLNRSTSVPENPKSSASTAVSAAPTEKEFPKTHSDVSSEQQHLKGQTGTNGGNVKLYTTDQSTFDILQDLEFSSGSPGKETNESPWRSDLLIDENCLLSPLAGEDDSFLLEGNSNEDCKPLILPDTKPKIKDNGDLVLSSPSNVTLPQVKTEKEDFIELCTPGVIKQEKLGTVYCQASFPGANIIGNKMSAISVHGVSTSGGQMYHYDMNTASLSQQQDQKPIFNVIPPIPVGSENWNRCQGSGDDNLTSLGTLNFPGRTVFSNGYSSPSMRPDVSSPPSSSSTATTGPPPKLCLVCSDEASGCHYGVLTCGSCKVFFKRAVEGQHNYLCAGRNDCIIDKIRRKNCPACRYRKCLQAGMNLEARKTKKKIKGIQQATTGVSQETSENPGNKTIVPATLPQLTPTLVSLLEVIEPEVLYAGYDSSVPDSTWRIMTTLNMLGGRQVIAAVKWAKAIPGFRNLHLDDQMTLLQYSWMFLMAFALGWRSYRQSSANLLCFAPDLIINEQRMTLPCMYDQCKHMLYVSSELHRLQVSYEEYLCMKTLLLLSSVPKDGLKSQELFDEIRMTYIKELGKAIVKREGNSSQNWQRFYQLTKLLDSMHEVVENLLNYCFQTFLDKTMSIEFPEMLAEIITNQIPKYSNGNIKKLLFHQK
Method: Glucocorticoid Receptor Binding Assay (I)^a
In order to assess the affinity of test compounds for the human glucocorticoid receptor, a commercially available kit was used (Glucocorticoid Receptor Competitor Assay Kit, Invitrogen Part #2893). Briefly, purified human recombinant full-length glucocorticoid receptor (2 nM) was mixed with fluorescently labeled glucocorticoid (1 nM Fluormone GS Red) in the presence or absence of test compound. After two hour incubation at room temperature in the dark, the fluorescence polarization (FP) of the samples was measured. […] Test compounds were analyzed in the concentration range from 8.5 E-05 μM to 5 μM.

[2] = target: T2, human full-length glucocorticoid receptor (Homo sapiens, UniProt P04150); experiment: Glucocorticoid Receptor Binding Assay (II), fluorescence polarization competitor kit (Fluormone GS1); details: GR Binding Assay (II)
T2 construct: recombinantly expressed human full-length glucocorticoid receptor; purchased PanVera Co., Madison, Wis; P2816
T2 sequence (P04150 1-777): T1 sequence (P04150 1-777)
Method: Glucocorticoid Receptor Binding Assay (II)^b
In order to measure the binding of compounds on the glucocorticoid receptor a commercially available kit was used (Glucocorticoid receptor competitor assay kit, PanVera Co., Madison, Wis., P2816). Briefly, a cell lysate containing recombinantly expressed human full-length glucocorticoid receptor was mixed with a fluorescently labeled glucocorticoid (1 nM Fluormone GS1) in the presence or absence of test compound. After one hour at room temperature, the fluorescence polarization (FP) of the samples were measured.

Ki [1] [nM]	Ki [2] [nM]	Structure (SMILES)
13.9	–	COc1ccc(C(c2ccccc2)C(C)(C)C(=O)Nc2nncs2)cc1C (single isomer, unassigned) [Example 295, 2,2-dimethyl-3-(3-methyl-4-(methyloxy)phenyl)-3-phenyl-N-1,3,4-thiadiazol-2-ylpropanamide]
1.24	–	CN(C)C(=O)c1ccc(-c2ccc(C(c3ccccc3)C(C)(C)C(=O)Nc3nncs3)cc2)cc1 (stereo not drawn) [Example 379, 4′-(2,2-dimethyl-3-oxo-1-phenyl-3-(1,3,4-thiadiazol-2-ylamino)propyl)-N,N-dimethyl-4-biphenylcarboxamide]
25.4	–	CC(C)(C(=O)Nc1nncs1)C(c1ccccc1)c1ccc(-c2cccc(Cl)c2)cc1 (stereo not drawn) [Example 409, 3-(3′-chloro-4-biphenylyl)-2,2-dimethyl-3-phenyl-N-1,3,4-thiadiazol-2-ylpropanamide]
12.1	–	CC(C)Cc1ccc(-c2ccc(C(CC(C)C)C(C)(C)C(=O)Nc3nncs3)cc2)cc1 (stereo not drawn) [Example 397, 2,2,5-trimethyl-3-(4′-(2-methylpropyl)-4-biphenylyl)-N-1,3,4-thiadiazol-2-ylhexanamide]
36.9	–	O=C(Nc1nccs1)C1(C(c2ccccc2)c2ccccc2)CCCCC1 [Example 156, 1-(diphenylmethyl)-N-1,3-thiazol-2-ylcyclohexanecarboxamide]
6.83	–	CC(C)CC(c1ccc(-c2ccc(C(=O)N(C)C)cc2)cc1)C(C)(C)C(=O)Nc1nccs1 (stereo not drawn) [Example 392, 4′-(1-(1,1-dimethyl-2-oxo-2-(1,3-thiazol-2-ylamino)ethyl)-3-methylbutyl)-N,N-dimethyl-4-biphenylcarboxamide]
1.81	–	COc1ccc(-c2ccc(C(c3ccccc3)C(C)(C)C(=O)Nc3nncs3)cc2)cc1 (stereo not drawn) [Example 377, 2,2-dimethyl-3-(4′-(methyloxy)-4-biphenylyl)-3-phenyl-N-1,3,4-thiadiazol-2-ylpropanamide]
21.4	–	CC(=O)Nc1ccc(-c2ccc(C(CC(C)C)C(C)(C)C(=O)Nc3nncs3)cc2)cc1 (stereo not drawn) [Example 440, 3-(4′-acetamido-4-biphenylyl)-2,2,5-trimethyl-N-1,3,4-thiadiazol-2-ylhexanamide]
–	16	CC(C)(C(=O)Nc1nccs1)C(c1ccccc1)c1ccc(O)c(F)c1 (stereo not drawn) [Example 346, 3-(3-fluoro-4-hydroxyphenyl)-2,2-dimethyl-3-phenyl-N-1,3-thiazol-2-ylpropanamide]
–	43.2	CC(C)(C(=O)Nc1nncs1)C(c1ccccc1)c1ccc(O)cc1F (stereo not drawn) [Example 344, 3-(2-fluoro-4-hydroxyphenyl)-2,2-dimethyl-3-phenyl-N-1,3,4-thiadiazol-2-ylpropanamide]
–	8.1	CC(C)(C(=O)Nc1ncns1)[C@@H](c1ccccc1)c1ccc(O)cc1 [Example 342, (3S)-3-(4-hydroxyphenyl)-2,2-dimethyl-3-phenyl-N-1,2,4-thiadiazol-5-ylpropanamide]
–	47	CC(C)(C(=O)Nc1nccs1)[C@H](c1ccccc1)c1ccc(OC(=O)c2ccco2)cc1 [Example 363, 4-((1R)-2,2-dimethyl-3-oxo-1-phenyl-3-(1,3-thiazol-2-ylamino)propyl)phenyl 2-furancarboxylate]
–	26.6	CC(C)(C(=O)Nc1nccs1)C(c1ccccc1)c1ccc(C#N)cc1 (stereo not drawn) [Example 310, 3-(4-cyanophenyl)-2,2-dimethyl-3-phenyl-N-1,3-thiazol-2-ylpropanamide]
–	130	CCOC(=O)c1csc(NC(=O)C(C)(C)[C@@H](c2ccccc2)c2ccc(OC)cc2)n1 [Example 263, ethyl 2-((2,2-dimethyl-3-(4-(methyloxy)phenyl)-3-phenylpropanoyl)amino)-1,3-thiazole-4-carboxylate]
–	395	CC(C)(C(=O)NC1CCC1)[C@H](c1ccccc1)c1ccc(O)cc1 [Example 334, (3R)-N-cyclobutyl-3-(4-hydroxyphenyl)-2,2-dimethyl-3-phenylpropanamide]
–	15.5	COc1ccc(C(c2ccccc2)C(C)(C)C(=O)Nc2nccs2)cc1F (stereo not drawn) [Example 281, 3-(3-fluoro-4-(methyloxy)phenyl)-2,2-dimethyl-3-phenyl-N-1,3-thiazol-2-ylpropanamide]
–	1500	CC(=O)Nc1ccc(C(c2ccccc2)C(C)(C)C(=O)Nc2nncs2)cc1 (stereo not drawn) [Example 246, 3-(4-(acetylamino)phenyl)-2,2-dimethyl-3-phenyl-N-1,3,4-thiadiazol-2-ylpropanamide]

Ki [1] [nM]	Ki [2] [nM]	Structure (SMILES)
–	45.7	COc1ccc([C@@H](c2ccccc2)C(C)(C)C(=O)Nc2nccs2)cc1C#N [Example 296, (3R)-3-(3-Cyano-4-(methyloxy)phenyl)-2,2-dimethyl-3-phenyl-N-1,3-thiazol-2-ylpropanamide]
–	9.6	CC(C)(C(=O)Nc1nccs1)C(c1ccccc1)c1ccc(N2CCC(O)CC2)cc1 (stereo not drawn) [Example 242, 3-(4-(4-hydroxy-1-piperidinyl)phenyl)-2,2-dimethyl-3-phenyl-N-1,3-thiazol-2-ylpropanamide]
–	17.8	CC(C)(C(=O)Nc1nccs1)[C@H](c1ccccc1)c1cccc(O)c1 [Example 328, 3-(3-hydroxyphenyl)-2,2-dimethyl-3-phenyl-N-1,3-thiazol-2-ylpropanamide]
–	770	COc1ccc([C@H](c2ccccc2)C(C)(C)C(=O)NC2CCC2)cc1 [Example 271, (3S)-N-cyclobutyl-2,2-dimethyl-3-(4-(methyloxy)phenyl)-3-phenylpropanamide]
–	12.6	CC(C)(C(=O)Nc1nccs1)C(c1ccc(F)cc1)c1ccc(N2CCOCC2)cc1 (stereo not drawn) [Example 222, 3-(4-Fluorophenyl)-2,2-dimethyl-3-(4-(4-morpholinyl)phenyl)-N-1,3-thiazol-2-ylpropanamide]
–	504	CC(C)(C(=O)NC1CCCC1)[C@H](c1ccccc1)c1ccc(O)cc1 [Example 336, (3R)-N-cyclopentyl-3-(4-hydroxyphenyl)-2,2-dimethyl-3-phenylpropanamide]
–	38.1	CC(O)c1ccc(C(c2ccccc2)C(C)(C)C(=O)Nc2nccs2)cc1 (stereo not drawn) [Example 371, 3-(4-(1-Hydroxyethyl)phenyl)-2,2-dimethyl-3-phenyl-N-1,3-thiazol-2-ylpropanamide]
–	57.6	CC(C)(C(=O)Nc1nccs1)C(c1ccccc1)c1cccc(C#N)c1 (stereo not drawn) [Example 313, 3-(3-cyanophenyl)-2,2-dimethyl-3-phenyl-N-1,3-thiazol-2-ylpropanamide]
–	111	COc1ccc([C@H](c2ccccc2)C(C)(C)C(=O)Nc2ncc(C)s2)cc1 [Example 267, (3S)-2,2-dimethyl-3-(4-(methyloxy)phenyl)-N-(5-methyl-1,3-thiazol-2-yl)-3-phenylpropanamide]
–	15.8	CC(C)(C(=O)Nc1nccs1)C(c1ccccc1)c1ccc(-c2ccoc2)cc1 (stereo not drawn) [Example 376, 3-(4-(3-furanyl)phenyl)-2,2-dimethyl-3-phenyl-N-1,3-thiazol-2-ylpropanamide]
–	10.9	CC(C)(C(=O)Nc1nncs1)C(c1ccccc1)c1ccc(Br)c(F)c1 (stereo not drawn) [Example 315, 3-(4-bromo-3-fluorophenyl)-2,2-dimethyl-3-phenyl-N-1,3,4-thiadiazol-2-ylpropanamide]
–	13.2	CC(C)(C(=O)Nc1nccs1)C(c1ccccc1)c1ccc(Br)c(F)c1 (stereo not drawn) [Example 314, 3-(4-bromo-3-fluorophenyl)-2,2-dimethyl-3-phenyl-N-1,3-thiazol-2-ylpropanamide]
–	169	Cc1csc(NC(=O)C(C)(C)[C@H](c2ccccc2)c2ccc(O)cc2)n1 [Example 330, (3R)-3-(4-hydroxyphenyl)-2,2-dimethyl-N-(4-methyl-1,3-thiazol-2-yl)-3-phenylpropanamide]
–	26.3	CC(C)(C(=O)Nc1nccs1)C(c1ccccc1)c1ccc(Cl)cc1 (stereo not drawn) [Example 306, 3-(4-chlorophenyl)-2,2-dimethyl-3-phenyl-N-1,3-thiazol-2-ylpropanamide]
–	51.9	COc1ccc([C@H](c2ccccc2)C(C)(C)C(=O)Nc2nncs2)cc1 [Example 275]
–	408	CC(C)(C)OC(=O)N1CCN(c2ccc(C(c3ccccc3)C(C)(C)C(=O)Nc3nncs3)cc2)CC1 (stereo not drawn) [Example 238, 1,1-dimethylethyl 4-(4-(2,2-dimethyl-3-oxo-1-phenyl-3-(1,3,4-thiadiazol-2-ylamino)propyl)phenyl)-1-piperazinecarboxylate]
